Results published in PubChem BioAssay (NCI).
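How tested: cells in 96-well plates exposed to compound for 48 hours at five concentrations. GI50 is the concentration that inhibits growth by half. The concentration for full growth arrest is given as TGI.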 Where a SMILES comes first, the peptide text is derived from it. [ ]: non-standard residue; d: D form. The star is where a group is joined. ξ: configuration not given here. NMeF = CN[CH](Cc1ccccc1)C(=O)O; ξNMe2Val = CC(C)C(C(=O)*)N(C)C; NMeV = CN[CH](C(=O)O)C(C)C; ξNMeV = CNC(C(=O)O)C(C)C; Boc = CC(C)(C)OC(=O)*; OBn = c1ccc(CO*)cc1; OtBu = CC(C)(C)O*

Legend:
Assay in all cases: NCI tumour cell line growth inhibition, 48 h
[1] = tested on: DLD-1 colon
[2] = tested on: DMS 114 small cell lung
[3] = tested on: DMS 273 small cell lung
[4] = tested on: HOP-18 NSCLC
[5] = tested on: LXFL 529 NSCLC
[6] = tested on: M19-MEL melanoma
[7] = tested on: RXF-631 renal
[8] = tested on: SNB-78 CNS
[9] = tested on: P388 leukemia
[10] = tested on: P388/ADR leukemia
[11] = tested on: SN12K1 renal

| Compound | TGI [1] | TGI [2] | TGI [3] | TGI [4] | TGI [5] | TGI [6] | TGI [7] | TGI [8] | TGI [9] | TGI [10] | TGI [11] | GI50 [1] | GI50 [4] |
| --- | --- | --- | --- | --- | --- | --- | --- | --- | --- | --- | --- | --- | --- |
| Cc1ccc(NC(=O)C2C3CCC(O3)C2C(=O)O)cc1 (configuration not stated) | 96.9 µM | > 59.8 µM | > 100 µM | > 100 µM | > 74.6 µM | > 100 µM | > 100 µM | > 100 µM | – | – | – | – | – |
| CC1OC(O[C@@H]2C=C3CC[C@@H]4[C@H](CC[C@]5(C)[C@@H](c6ccc(=O)oc6)CC[C@]45O)[C@@]3(C)CC2)C(O)C(OC2OC(CO)C(O)C(O)C2O)C1O (some centres not stated) | 0.0253 µM | – | – | – | – | 0.039 µM | – | 0.033 µM | 115 µM | 142 µM | 0.025 µM | – | – |
| CN(C)CCC[N+]1=Nc2cccc3cccc(c23)N1 | 35.8 µM | > 100 µM | 59.5 µM | > 100 µM | > 100 µM | > 100 µM | > 100 µM | > 100 µM | – | – | – | – | – |
| CC(=O)OCC1OC(N=[N+]=[N-])C(OC(C)=O)C(OC(C)=O)C1OC1OC(COC(C)=O)C(OC(C)=O)C(OC(C)=O)C1OC(C)=O (configuration not stated) | – | > 100 µM | > 100 µM | – | > 100 µM | > 100 µM | > 100 µM | > 100 µM | – | – | – | – | – |
| CC#COS(=O)(=O)c1ccc(C)cc1 | > 100 µM | > 100 µM | – | – | > 100 µM | > 100 µM | – | > 100 µM | – | – | – | – | – |
| COc1cc(O)c(Cc2ccccc2O)c(O)c1C(=O)CCc1ccccc1 | 30.7 µM | 14.5 µM | 13.1 µM | 4.53 µM | – | 20.5 µM | – | 31.4 µM | 13.5 µM | 14 µM | 19.5 µM | – | – |
| O=C1C(=C([O-])c2ccccc2)C(=O)c2ccccc21.O=C1C(=C([O-])c2ccccc2)C(=O)c2ccccc21.[Ni+2] | > 100 µM | – | – | > 100 µM | – | – | – | – | – | – | – | 40.2 µM | 27.9 µM |
| CC(C)C(C(=O)N(C)[C@H](C(=O)N1CCC[C@H]1C(=O)N(C)[C@@H](Cc1ccccc1)C(=O)OCc1ccccc1)C(C)C)N(C)C(=O)[C@@H](NC(=O)OC(C)(C)C)C(C)C (some centres not stated) (Boc-V[ξNMeV][NMeV]P[NMeF]-OBn) | > 31.6 µM | > 31.6 µM | > 31.6 µM | > 100 µM | > 100 µM | > 31.6 µM | – | > 31.6 µM | – | – | – | – | – |
| COc1ccc([C@H]2CC3C(=O)N(c4ccc(OC)cc4)C(=O)C3c3[nH]c4ccccc4c32)cc1 (some centres not stated) | > 100 µM | > 100 µM | > 100 µM | – | > 100 µM | > 100 µM | – | > 100 µM | – | – | – | – | – |
| N#COc1ccc(Oc2ccc(OC#N)cc2)cc1 | > 100 µM | 92.7 µM | – | > 100 µM | > 100 µM | > 100 µM | > 100 µM | > 100 µM | – | – | – | – | – |
| NC(=O)/N=C/c1c(O)c2ccccc2oc1=O | > 100 µM | > 100 µM | > 100 µM | – | > 100 µM | – | – | > 100 µM | – | – | – | – | – |
| CC(C)C(C(=O)N(C)C(Cc1ccccc1)C(=O)N(C)C(C(=O)N(C)C(C(=O)N1CCCC1C(=O)OC(C)(C)C)C(C)C)C(C)C)N(C)C (configuration not stated) (ξNMe2Val-[NMeF][NMeV][NMeV]P-OtBu; configuration not given here) | – | > 100 µM | 84.1 µM | – | > 100 µM | > 100 µM | – | – | – | – | – | – | – |
| CCCCCCCCCCCC[N+]12CC[N+](C)(CC1)CC2 | > 100 µM | 44.6 µM | 15.1 µM | > 100 µM | > 100 µM | 70.9 µM | – | 76 µM | – | – | – | – | – |
| CSC(C1c2ccccc2N(C)c2[nH]c(=O)n(C)c(=O)c21)S(=O)(=O)c1ccc(C)cc1 (configuration not stated) | > 100 µM | > 100 µM | > 100 µM | > 100 µM | > 100 µM | > 100 µM | – | > 100 µM | – | – | – | – | – |
| COc1ccc(-c2oc3cc(O)c(OC)c(O)c3c(=O)c2O)cc1 | 30.8 µM | – | 30 µM | > 100 µM | > 100 µM | > 100 µM | > 100 µM | > 100 µM | – | – | – | – | – |
| COC(=O)C(CCC1(C)OCCO1)=[N+]=[N-] | > 100 µM | > 100 µM | > 100 µM | > 100 µM | > 100 µM | – | > 100 µM | > 100 µM | – | – | – | – | – |
| NC(=S)N1N=C2c3ccccc3CCC[C@H]2[C@@H]1c1ccccc1 | 25.7 µM | 50.8 µM | 11.3 µM | – | 18.2 µM | > 100 µM | – | 61.9 µM | – | – | – | – | – |
| O=C1Nc2ccc(Cl)c(I)c2C1=O | 31.4 µM | 34.2 µM | 30.8 µM | – | 30.5 µM | 24.9 µM | – | – | – | – | – | – | – |
| COc1ccc(NC(=O)C(=O)Cc2ccc([N+](=O)[O-])c([N+](=O)[O-])c2CC(=O)C(=O)Nc2ccc(OC)cc2OC)c(OC)c1 | > 100 µM | > 100 µM | > 100 µM | > 100 µM | > 100 µM | > 100 µM | > 100 µM | > 100 µM | – | – | – | – | – |
